{
  "source": "patent US20090297576A1",
  "about": "“Local Delivery of PAR-1 Antagonists to Treat Vascular Complications” (MEDTRONIC VASCULAR, INC., priority 2008, published 2009)",
  "test": "solubility of SCH-530348 in the coating solvent ethanol",
  "format": "physicochemical",
  "details": "stent coating solution",
  "method": "In the following Example, ethanol is chosen as the solvent of choice. The PAR-1 antagonist is SCH-530348. […] Persons having ordinary skill in the art of polymer chemistry can easily pair the appropriate solvent system to the polymer-drug combination and achieve optimum results with no more than routine experimentation.\n250 mg of SCH-530348 is carefully weighed and added to a small neck glass bottle containing 2.8 ml of ethanol. The SCH-530348-ethanol suspension is then thoroughly mixed until a clear solution is achieved.",
  "data": [
    {"smiles": "CCOC(=O)N[C@@H]1CC[C@@H]2[C@@H](C1)C[C@H]1C(=O)O[C@H](C)[C@H]1[C@H]2/C=C/c1ccc(-c2cccc(F)c2)cn1", "note": "[SCH-530348]", "values": [
      {"measurement": "solubility in ethanol", "result": "freely soluble"}
    ]}
  ]
}
